Results published in publication PMC3192407, “Both Basic and Acidic Amino Acid Residues of IpTxa Are Involved in Triggering Substate of RyR1” (Journal of Biomedicine and Biotechnology, 2011).
Bridge positions count the residues as written; N and C are the ends. Peptide text beside a SMILES is read from it.

Target: T1, rabbit skeletal RyR1 (native RyR1 in HSR) (Oryctolagus cuniculus, UniProt P11716)
T1 construct: tested using native RyR1 in rabbit skeletal HSR; from tissue; host or cells: rabbit fast-twitch back and leg muscles (heavy SR vesicles)
Assay: Planar lipid bilayer single-channel recording, native RyR1 in HSR
Assay type: biochemical
Conditions: native RyR1 (Figure 2(b)); Figure 5(b), purified RyR1, also cited in sentence
Method: A heavy fraction of fragmented SR vesicles (HSR) containing junctional SR was prepared from rabbit fast-twitch back and leg muscles as described previously.
Single-channel recordings of rabbit skeletal RyR1 incorporated into planar lipid bilayers were carried out as described previously. Lipid bilayers, consisting of brain tissue phosphatidylethanolamine and phosphatidylserine (1 : 1) in decane (20 mg/mL) were formed across a hole of approximately 200 μm diameter. Thinning of the bilayer was monitored by bilayer capacitance. The basic composition of the cis/trans solution consisted of 300 mM cesium methanesulfonate, 10 mM Tris/Hepes (pH 7.2), 2 mM EGTA, and 1.998 mM CaCl2 ([Ca^2+]free = 10 μM). [Ca^2+]free was calculated using the “Chelator” program (Theo Schoenmaker). Cs^+ was selected as the charge carrier to ensure precise control of free [Ca^2+], to increase the channel conductance, and to avoid any contribution from potassium channels present in the SR membrane. Chloride channels were inhibited by using the impermeant anion methanesulfonate. Incorporation of ion channels was carried out as described by Miller and Racker and confirmed by recording the characteristically high single-channel conductance of RyRs. The trans side was maintained at ground and the cis side was clamped at −30 mV relative to the ground. After addition of the IpTxa to the cis chamber, the single channel data were collected at −30 mV for 2–5 min. […] Recordings were filtered with an 8-pole low-pass Bessel filter at 1 kHz and digitalized through a Digidata 1200 series interface (Axon Instruments). Data acquisition and analysis were done with the Axon Instruments software, pClamp v7.0.
Data were analyzed using the Hill equation described previously:
(1) Psubstate=(Psubstate, max )/[1+(EC50/[IpTxa])^nH] orPo=(Po, max )/[1+(EC50/[IpTxa])^nH], where (Po, max ) is the Po observed at saturating concentrations of IpTxa, EC50 is the IpTxa concentration for which 50% of Po, max is obtained and nH is the Hill coefficient. Also, Psubstate, max is the Psubstate observed at saturating concentrations of IpTxa, EC50 is the IpTxa concentration for which 50% of Psubstate, max is obtained, and nH is the Hill coefficient. The probability of full open state of the channel (Po) was defined as the ratio of the time spent in the open state to the total time exclusive of time spent in the substate. The probability to obtain substate (Psubstate) was calculated as the time spent in the substate divided by a given total recording time. The durations of the substate were obtained by manual positioning of the cursors and constructing all point histograms. Mean duration of substate was measured by total substate time divided by total substate frequencies.
Results are given as means ± SE. Significant differences were analyzed using Student's t-test. Differences were considered to be significant when P < 0.05. The fitting of the data to the graphs were carried out using the software, Origin v7.
To examine how IpTxa modifies RyR1 activity, RyR1 in HSR incorporated in planar lipid bilayers was tested in the presence or absence of synthetic wild-type IpTxa. The chamber solutions for both cis (cytosolic) and trans (luminal) sides included 300 mM cesium methanesulfonate and 10 mM Tris-Hepes (pH 7.2). 10 μM free Ca^2+ was added to the cis side to activate the incorporated RyR1. After an addition of IpTxa to the cis chamber, the single channel gating properties were recorded at a holding potential of −30 mV for over 2 min at each toxin concentration. […] To examine the effects of IpTxa on full open state, we calculated the probability to obtain the full open state (Po) as the time spent in the open state divided by the total time exclusive of the time spent in the substate. The time for recorded Po was in the range of 30 s–2 min. […] The steady-state Po was 0.18 ± 0.02 at 10 μM Ca^2+. […]

T1 sequence (P11716 whole entry): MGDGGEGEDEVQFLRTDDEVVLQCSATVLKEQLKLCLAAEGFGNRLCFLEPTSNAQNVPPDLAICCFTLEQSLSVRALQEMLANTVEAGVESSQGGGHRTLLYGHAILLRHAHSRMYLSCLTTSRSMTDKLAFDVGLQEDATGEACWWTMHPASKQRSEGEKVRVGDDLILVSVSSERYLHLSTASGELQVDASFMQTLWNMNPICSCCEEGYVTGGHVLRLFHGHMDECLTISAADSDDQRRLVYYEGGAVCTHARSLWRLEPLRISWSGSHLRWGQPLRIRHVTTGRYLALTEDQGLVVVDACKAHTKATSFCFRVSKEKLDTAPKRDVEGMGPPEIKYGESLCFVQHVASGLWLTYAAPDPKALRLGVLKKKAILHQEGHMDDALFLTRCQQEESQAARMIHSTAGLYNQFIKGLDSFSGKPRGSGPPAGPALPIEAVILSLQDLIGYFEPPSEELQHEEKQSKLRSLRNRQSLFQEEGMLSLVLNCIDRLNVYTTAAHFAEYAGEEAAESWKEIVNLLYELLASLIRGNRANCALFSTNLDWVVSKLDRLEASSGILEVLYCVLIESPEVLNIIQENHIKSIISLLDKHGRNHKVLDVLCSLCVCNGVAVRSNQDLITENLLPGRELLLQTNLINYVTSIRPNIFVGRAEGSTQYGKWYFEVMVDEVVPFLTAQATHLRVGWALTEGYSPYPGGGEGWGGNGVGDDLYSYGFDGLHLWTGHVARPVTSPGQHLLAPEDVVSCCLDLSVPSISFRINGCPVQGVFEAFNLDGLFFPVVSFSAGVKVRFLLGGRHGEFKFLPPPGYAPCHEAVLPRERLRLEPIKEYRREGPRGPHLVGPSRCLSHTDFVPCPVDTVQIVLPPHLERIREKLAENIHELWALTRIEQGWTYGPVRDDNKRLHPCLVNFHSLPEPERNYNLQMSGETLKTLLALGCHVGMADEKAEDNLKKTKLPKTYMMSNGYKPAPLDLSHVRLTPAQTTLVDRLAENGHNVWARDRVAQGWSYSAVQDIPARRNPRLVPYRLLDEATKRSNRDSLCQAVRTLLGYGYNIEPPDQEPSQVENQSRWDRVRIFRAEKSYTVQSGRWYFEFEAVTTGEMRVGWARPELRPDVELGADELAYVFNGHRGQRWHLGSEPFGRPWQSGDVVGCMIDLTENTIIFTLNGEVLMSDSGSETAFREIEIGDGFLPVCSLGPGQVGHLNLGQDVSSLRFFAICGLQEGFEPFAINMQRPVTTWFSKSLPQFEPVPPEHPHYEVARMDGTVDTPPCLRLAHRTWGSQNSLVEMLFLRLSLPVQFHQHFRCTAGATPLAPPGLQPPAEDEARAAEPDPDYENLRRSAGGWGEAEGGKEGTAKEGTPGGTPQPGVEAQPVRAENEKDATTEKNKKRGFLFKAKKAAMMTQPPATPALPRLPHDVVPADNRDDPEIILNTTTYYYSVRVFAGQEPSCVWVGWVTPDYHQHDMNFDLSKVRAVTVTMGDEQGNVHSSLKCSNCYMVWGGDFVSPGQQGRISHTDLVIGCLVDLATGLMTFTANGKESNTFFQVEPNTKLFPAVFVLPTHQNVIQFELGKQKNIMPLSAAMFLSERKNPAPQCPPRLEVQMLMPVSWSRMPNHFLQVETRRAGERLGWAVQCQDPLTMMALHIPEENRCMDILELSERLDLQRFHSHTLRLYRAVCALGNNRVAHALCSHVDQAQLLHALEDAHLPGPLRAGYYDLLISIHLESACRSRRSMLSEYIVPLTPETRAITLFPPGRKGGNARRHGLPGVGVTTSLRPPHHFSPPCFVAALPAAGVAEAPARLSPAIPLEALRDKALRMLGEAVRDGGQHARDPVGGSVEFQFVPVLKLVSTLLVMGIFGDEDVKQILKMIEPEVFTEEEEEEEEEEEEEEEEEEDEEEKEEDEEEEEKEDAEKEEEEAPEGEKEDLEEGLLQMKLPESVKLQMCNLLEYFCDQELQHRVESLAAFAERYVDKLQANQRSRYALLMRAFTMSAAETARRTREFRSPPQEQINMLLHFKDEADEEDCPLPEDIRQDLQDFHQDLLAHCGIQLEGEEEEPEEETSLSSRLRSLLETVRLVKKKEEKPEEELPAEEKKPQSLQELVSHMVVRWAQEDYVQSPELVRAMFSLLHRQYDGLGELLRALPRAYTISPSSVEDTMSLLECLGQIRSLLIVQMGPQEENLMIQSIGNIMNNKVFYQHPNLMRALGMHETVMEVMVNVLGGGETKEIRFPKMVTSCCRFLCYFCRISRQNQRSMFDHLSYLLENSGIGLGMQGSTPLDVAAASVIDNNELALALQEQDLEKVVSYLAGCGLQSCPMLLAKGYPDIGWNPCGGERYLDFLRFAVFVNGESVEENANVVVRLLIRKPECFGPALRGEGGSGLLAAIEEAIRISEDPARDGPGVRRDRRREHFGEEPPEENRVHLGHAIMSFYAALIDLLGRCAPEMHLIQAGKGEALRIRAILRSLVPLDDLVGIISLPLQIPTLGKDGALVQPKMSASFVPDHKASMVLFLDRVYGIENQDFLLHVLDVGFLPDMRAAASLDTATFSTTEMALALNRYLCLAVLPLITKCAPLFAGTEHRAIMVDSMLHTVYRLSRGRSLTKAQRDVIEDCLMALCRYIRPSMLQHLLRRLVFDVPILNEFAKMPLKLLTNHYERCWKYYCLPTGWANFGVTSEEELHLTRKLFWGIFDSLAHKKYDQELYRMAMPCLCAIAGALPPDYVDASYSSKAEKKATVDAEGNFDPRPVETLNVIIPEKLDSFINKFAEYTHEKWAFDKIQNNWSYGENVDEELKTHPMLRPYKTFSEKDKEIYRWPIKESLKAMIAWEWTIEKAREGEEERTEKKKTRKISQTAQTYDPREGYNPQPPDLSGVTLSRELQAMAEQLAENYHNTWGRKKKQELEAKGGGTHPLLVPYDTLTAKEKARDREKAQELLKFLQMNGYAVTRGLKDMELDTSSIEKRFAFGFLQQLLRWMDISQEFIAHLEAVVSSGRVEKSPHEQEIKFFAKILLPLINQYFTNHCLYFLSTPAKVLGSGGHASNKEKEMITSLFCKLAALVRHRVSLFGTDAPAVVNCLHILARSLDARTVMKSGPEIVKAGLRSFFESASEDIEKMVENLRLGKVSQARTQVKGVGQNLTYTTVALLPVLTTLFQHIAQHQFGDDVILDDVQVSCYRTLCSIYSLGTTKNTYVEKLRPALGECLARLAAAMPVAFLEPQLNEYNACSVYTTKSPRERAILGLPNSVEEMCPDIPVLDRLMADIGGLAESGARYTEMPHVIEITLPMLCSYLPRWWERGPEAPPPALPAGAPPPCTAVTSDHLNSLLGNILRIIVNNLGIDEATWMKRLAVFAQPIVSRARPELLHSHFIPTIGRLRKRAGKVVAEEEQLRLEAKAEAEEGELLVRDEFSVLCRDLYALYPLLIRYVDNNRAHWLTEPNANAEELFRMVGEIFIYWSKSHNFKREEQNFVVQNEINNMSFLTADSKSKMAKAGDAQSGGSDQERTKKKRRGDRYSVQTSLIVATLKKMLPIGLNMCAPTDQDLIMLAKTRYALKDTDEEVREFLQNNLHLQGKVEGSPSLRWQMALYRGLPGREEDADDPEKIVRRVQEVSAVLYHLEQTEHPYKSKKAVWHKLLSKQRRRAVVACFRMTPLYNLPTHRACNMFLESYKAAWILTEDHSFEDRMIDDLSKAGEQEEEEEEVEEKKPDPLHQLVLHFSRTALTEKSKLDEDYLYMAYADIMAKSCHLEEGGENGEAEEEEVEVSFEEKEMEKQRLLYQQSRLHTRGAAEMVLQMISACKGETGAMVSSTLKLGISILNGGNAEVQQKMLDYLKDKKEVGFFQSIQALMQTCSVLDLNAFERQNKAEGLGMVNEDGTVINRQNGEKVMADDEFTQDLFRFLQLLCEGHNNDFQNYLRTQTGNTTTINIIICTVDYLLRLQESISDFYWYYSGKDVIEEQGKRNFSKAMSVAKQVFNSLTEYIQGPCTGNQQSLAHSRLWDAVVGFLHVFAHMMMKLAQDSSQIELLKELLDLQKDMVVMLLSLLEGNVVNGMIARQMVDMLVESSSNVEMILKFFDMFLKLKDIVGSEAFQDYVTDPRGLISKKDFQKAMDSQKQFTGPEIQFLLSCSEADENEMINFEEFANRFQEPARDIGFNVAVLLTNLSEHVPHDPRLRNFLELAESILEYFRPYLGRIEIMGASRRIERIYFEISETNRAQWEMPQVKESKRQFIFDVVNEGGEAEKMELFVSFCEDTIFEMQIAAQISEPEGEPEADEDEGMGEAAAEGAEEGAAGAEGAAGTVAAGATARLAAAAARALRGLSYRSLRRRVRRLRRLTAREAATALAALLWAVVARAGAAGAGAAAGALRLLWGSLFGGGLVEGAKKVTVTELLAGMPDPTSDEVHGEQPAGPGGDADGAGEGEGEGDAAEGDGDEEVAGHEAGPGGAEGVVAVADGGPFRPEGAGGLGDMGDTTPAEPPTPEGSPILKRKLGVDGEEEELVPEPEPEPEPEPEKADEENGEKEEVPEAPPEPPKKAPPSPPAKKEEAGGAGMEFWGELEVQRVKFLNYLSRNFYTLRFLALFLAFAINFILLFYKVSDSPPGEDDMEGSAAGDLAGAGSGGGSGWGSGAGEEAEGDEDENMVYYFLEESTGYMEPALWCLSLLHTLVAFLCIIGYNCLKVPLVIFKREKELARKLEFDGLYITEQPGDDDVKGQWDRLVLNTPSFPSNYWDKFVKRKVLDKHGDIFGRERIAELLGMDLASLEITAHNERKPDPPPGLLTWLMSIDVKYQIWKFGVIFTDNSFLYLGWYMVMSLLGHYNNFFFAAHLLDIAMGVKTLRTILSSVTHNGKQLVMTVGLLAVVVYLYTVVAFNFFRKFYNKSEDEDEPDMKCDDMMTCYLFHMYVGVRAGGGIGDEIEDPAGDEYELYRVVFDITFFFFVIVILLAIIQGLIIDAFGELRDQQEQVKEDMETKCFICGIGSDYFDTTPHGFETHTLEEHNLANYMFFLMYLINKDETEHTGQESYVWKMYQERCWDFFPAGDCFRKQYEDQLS

Compound	EC50 of Psubstate compared with wild type (in words)
CC(C)C[C@@H]1NC(=O)[C@H](Cc2c[nH]cn2)NC(=O)[C@@H]2CCCN2C(=O)[C@H](CC(C)C)NC(=O)[C@@H](NC(=O)[C@H](CC(=O)O)NC(=O)CN)CSSC[C@@H]2NC(=O)[C@@H]3CSSC[C@@H](C(=O)N[C@@H](CCCNC(=N)N)C(=O)O)NC(=O)[C@H](CCCNC(=N)N)NC(=O)[C@H](CCCCN)NC(=O)[C@H](CCC(=O)O)NC(=O)[C@H](C)NC(=O)[C@H](CC(N)=O)NC(=O)[C@H](C)NC(=O)CNC(=O)[C@H](CCCNC(=N)N)NC(=O)[C@H](CCCNC(=N)N)NC(=O)[C@H](CCCCN)NC(=O)[C@H](CSSC[C@H](NC(=O)[C@H](CCCNC(=N)N)NC(=O)[C@H](CCCCN)NC1=O)C(=O)N[C@@H](CCCCN)C(=O)N[C@@H](C)C(=O)N[C@@H](CC(=O)O)C(=O)N[C@@H](CC(N)=O)C(=O)N[C@@H](CC(=O)O)C(=O)N3)NC(=O)[C@H](CCCCN)NC(=O)[C@H](CCCCN)NC(=O)CNC2=O [T26A] (H-GDCLPHLKRCKADNDCCGKKCKRRGANAEKRCR-OH; disulfide 3-17, 10-21, 16-32)	dramatically decreased EC50 of Psubstate

Same assay, conditions: native RyR1 in SR, toxin cis, 6-100 nM, -30 mV, [Ca^2+]free 10 μM, pH 7.2, Hill fit, means ± SE of 3–9 experiments; read-out: EC50 for Psubstate

Compound	EC50 [µM]
CC(C)C[C@@H]1NC(=O)[C@H](Cc2c[nH]cn2)NC(=O)[C@@H]2CCCN2C(=O)[C@H](CC(C)C)NC(=O)[C@@H](NC(=O)[C@H](CC(=O)O)NC(=O)CN)CSSC[C@@H]2NC(=O)[C@@H]3CSSC[C@@H](C(=O)N[C@@H](CCCNC(=N)N)C(=O)O)NC(=O)[C@H](CCCNC(=N)N)NC(=O)[C@H](CCCCN)NC(=O)[C@H](CCC(=O)O)NC(=O)[C@H](C)NC(=O)[C@H](CC(N)=O)NC(=O)[C@H](C)NC(=O)CNC(=O)[C@H](CCCNC(=N)N)NC(=O)[C@H](CCCNC(=N)N)NC(=O)[C@H](CCCCN)NC(=O)[C@H](CSSC[C@H](NC(=O)[C@H](CCCNC(=N)N)NC(=O)[C@H](CCCCN)NC1=O)C(=O)N[C@@H](CCCCN)C(=O)N[C@@H](C)C(=O)N[C@@H](CC(=O)O)C(=O)N[C@@H](CC(N)=O)C(=O)N[C@@H](CC(=O)O)C(=O)N3)NC(=O)[C@H](CCCCN)NC(=O)[C@H](CCCCN)NC(=O)CNC2=O [T26A] (H-GDCLPHLKRCKADNDCCGKKCKRRGANAEKRCR-OH; disulfide 3-17, 10-21, 16-32)	0.00998 ± 0.00192
CC(C)C[C@@H]1NC(=O)[C@H](Cc2c[nH]cn2)NC(=O)[C@@H]2CCCN2C(=O)[C@H](CC(C)C)NC(=O)[C@@H](NC(=O)[C@H](CC(=O)O)NC(=O)CN)CSSC[C@@H]2NC(=O)[C@@H]3CSSC[C@@H](C(=O)N[C@@H](CCCNC(=N)N)C(=O)O)NC(=O)[C@H](CCCNC(=N)N)NC(=O)[C@H](CCCCN)NC(=O)[C@H](CCC(=O)O)NC(=O)[C@H](C)NC(=O)[C@H](CC(N)=O)NC(=O)[C@H]([C@@H](C)O)NC(=O)CNC(=O)[C@H](CCCNC(=N)N)NC(=O)[C@H](CCCNC(=N)N)NC(=O)[C@H](C)NC(=O)[C@H](CSSC[C@H](NC(=O)[C@H](CCCNC(=N)N)NC(=O)[C@H](CCCCN)NC1=O)C(=O)N[C@@H](CCCCN)C(=O)N[C@@H](C)C(=O)N[C@@H](CC(=O)O)C(=O)N[C@@H](CC(N)=O)C(=O)N[C@@H](CC(=O)O)C(=O)N3)NC(=O)[C@H](CCCCN)NC(=O)[C@H](CCCCN)NC(=O)CNC2=O [K22A] (H-GDCLPHLKRCKADNDCCGKKCARRGTNAEKRCR-OH; disulfide 3-17, 10-21, 16-32)	0.0185 ± 0.00288
CC(C)C[C@@H]1NC(=O)[C@H](Cc2c[nH]cn2)NC(=O)[C@@H]2CCCN2C(=O)[C@H](CC(C)C)NC(=O)[C@@H](NC(=O)[C@H](CC(=O)O)NC(=O)CN)CSSC[C@@H]2NC(=O)[C@@H]3CSSC[C@@H](C(=O)N[C@@H](CCCNC(=N)N)C(=O)O)NC(=O)[C@H](CCCNC(=N)N)NC(=O)[C@H](CCCCN)NC(=O)[C@H](CCC(=O)O)NC(=O)[C@H](C)NC(=O)[C@H](CC(N)=O)NC(=O)[C@H]([C@@H](C)O)NC(=O)CNC(=O)[C@H](CCCNC(=N)N)NC(=O)[C@H](CCCNC(=N)N)NC(=O)[C@H](CCCCN)NC(=O)[C@H](CSSC[C@H](NC(=O)[C@H](CCCNC(=N)N)NC(=O)[C@H](CCCCN)NC1=O)C(=O)N[C@@H](CCCCN)C(=O)N[C@@H](C)C(=O)N[C@@H](CC(=O)O)C(=O)N[C@@H](CC(N)=O)C(=O)N[C@@H](CC(=O)O)C(=O)N3)NC(=O)[C@H](CCCCN)NC(=O)[C@H](C)NC(=O)CNC2=O [K19A] (H-GDCLPHLKRCKADNDCCGAKCKRRGTNAEKRCR-OH; disulfide 3-17, 10-21, 16-32)	0.0218 ± 0.00647
CC(C)C[C@@H]1NC(=O)[C@H](Cc2c[nH]cn2)NC(=O)[C@@H]2CCCN2C(=O)[C@H](CC(C)C)NC(=O)[C@@H](NC(=O)[C@H](CC(=O)O)NC(=O)CN)CSSC[C@@H]2NC(=O)[C@@H]3CSSC[C@@H](C(=O)N[C@@H](CCCNC(=N)N)C(=O)O)NC(=O)[C@H](CCCNC(=N)N)NC(=O)[C@H](CCCCN)NC(=O)[C@H](CCC(=O)O)NC(=O)[C@H](C)NC(=O)[C@H](CC(N)=O)NC(=O)[C@H]([C@@H](C)O)NC(=O)CNC(=O)[C@H](CCCNC(=N)N)NC(=O)[C@H](CCCNC(=N)N)NC(=O)[C@H](CCCCN)NC(=O)[C@H](CSSC[C@H](NC(=O)[C@H](CCCNC(=N)N)NC(=O)[C@H](CCCCN)NC1=O)C(=O)N[C@@H](C)C(=O)N[C@@H](C)C(=O)N[C@@H](CC(=O)O)C(=O)N[C@@H](CC(N)=O)C(=O)N[C@@H](CC(=O)O)C(=O)N3)NC(=O)[C@H](CCCCN)NC(=O)[C@H](CCCCN)NC(=O)CNC2=O [K11A] (H-GDCLPHLKRCAADNDCCGKKCKRRGTNAEKRCR-OH; disulfide 3-17, 10-21, 16-32)	0.0218 ± 0.00349
CC(C)C[C@@H]1NC(=O)[C@H](Cc2c[nH]cn2)NC(=O)[C@@H]2CCCN2C(=O)[C@H](CC(C)C)NC(=O)[C@@H](NC(=O)[C@H](CC(=O)O)NC(=O)CN)CSSC[C@@H]2NC(=O)[C@@H]3CSSC[C@@H](C(=O)N[C@@H](CCCNC(=N)N)C(=O)O)NC(=O)[C@H](CCCNC(=N)N)NC(=O)[C@H](CCCCN)NC(=O)[C@H](CCC(=O)O)NC(=O)[C@H](C)NC(=O)[C@H](CC(N)=O)NC(=O)[C@H]([C@@H](C)O)NC(=O)CNC(=O)[C@H](CCCNC(=N)N)NC(=O)[C@H](CCCNC(=N)N)NC(=O)[C@H](CCCCN)NC(=O)[C@H](CSSC[C@H](NC(=O)[C@H](CCCNC(=N)N)NC(=O)[C@H](CCCCN)NC1=O)C(=O)N[C@@H](CCCCN)C(=O)N[C@@H](C)C(=O)N[C@@H](C)C(=O)N[C@@H](CC(N)=O)C(=O)N[C@@H](CC(=O)O)C(=O)N3)NC(=O)[C@H](CCCCN)NC(=O)[C@H](CCCCN)NC(=O)CNC2=O [D13A] (H-GDCLPHLKRCKAANDCCGKKCKRRGTNAEKRCR-OH; disulfide 3-17, 10-21, 16-32)	0.0217 ± 0.00792
CC(C)C[C@@H]1NC(=O)[C@H](Cc2c[nH]cn2)NC(=O)[C@@H]2CCCN2C(=O)[C@H](CC(C)C)NC(=O)[C@@H](NC(=O)[C@H](CC(=O)O)NC(=O)CN)CSSC[C@@H]2NC(=O)[C@@H]3CSSC[C@@H](C(=O)N[C@@H](CCCNC(=N)N)C(=O)O)NC(=O)[C@H](CCCNC(=N)N)NC(=O)[C@H](CCCCN)NC(=O)[C@H](CCC(=O)O)NC(=O)[C@H](C)NC(=O)[C@H](CC(N)=O)NC(=O)[C@H]([C@@H](C)O)NC(=O)CNC(=O)[C@H](CCCNC(=N)N)NC(=O)[C@H](CCCNC(=N)N)NC(=O)[C@H](CCCCN)NC(=O)[C@H](CSSC[C@H](NC(=O)[C@H](CCCNC(=N)N)NC(=O)[C@H](CCCCN)NC1=O)C(=O)N[C@@H](CCCCN)C(=O)N[C@@H](C)C(=O)N[C@@H](CC(=O)O)C(=O)N[C@@H](CC(N)=O)C(=O)N[C@@H](CC(=O)O)C(=O)N3)NC(=O)[C@H](C)NC(=O)[C@H](CCCCN)NC(=O)CNC2=O [K20A] (H-GDCLPHLKRCKADNDCCGKACKRRGTNAEKRCR-OH; disulfide 3-17, 10-21, 16-32)	0.0185 ± 0.00817
CC(C)C[C@@H]1NC(=O)[C@H](Cc2c[nH]cn2)NC(=O)[C@@H]2CCCN2C(=O)[C@H](CC(C)C)NC(=O)[C@@H](NC(=O)[C@H](CC(=O)O)NC(=O)CN)CSSC[C@@H]2NC(=O)[C@@H]3CSSC[C@@H](C(=O)N[C@@H](CCCNC(=N)N)C(=O)O)NC(=O)[C@H](CCCNC(=N)N)NC(=O)[C@H](CCCCN)NC(=O)[C@H](C)NC(=O)[C@H](C)NC(=O)[C@H](CC(N)=O)NC(=O)[C@H]([C@@H](C)O)NC(=O)CNC(=O)[C@H](CCCNC(=N)N)NC(=O)[C@H](CCCNC(=N)N)NC(=O)[C@H](CCCCN)NC(=O)[C@H](CSSC[C@H](NC(=O)[C@H](CCCNC(=N)N)NC(=O)[C@H](CCCCN)NC1=O)C(=O)N[C@@H](CCCCN)C(=O)N[C@@H](C)C(=O)N[C@@H](CC(=O)O)C(=O)N[C@@H](CC(N)=O)C(=O)N[C@@H](CC(=O)O)C(=O)N3)NC(=O)[C@H](CCCCN)NC(=O)[C@H](CCCCN)NC(=O)CNC2=O [E29A] (H-GDCLPHLKRCKADNDCCGKKCKRRGTNAAKRCR-OH; disulfide 3-17, 10-21, 16-32)	0.00607 ± 0.00428
